Numbered stars: 1 amine (or outer) side, 2 acyl side, 3 side chain; on linkers, the order of the positions; unused ones are H or OH. Square brackets hold non-standard residues; d marks the D form. Side chains are listed from the residue outwards. Peptide text beside a SMILES is read from it. * marks the point of attachment. C20 diacid = O=C(O)CCCCCCCCCCCCCCCCCCC(=O)*; γGlu = O=C(O)[C@H](CCC(=O)[*:2])N[*:1]; αMeL = CC(C)C[C@](C)(N)C(=O)O; AEEA = NCCOCCOCC(=O)O; Aib = CC(C)(N)C(=O)O

For two molecules, Ki and EC50 results are on record in patent publication US12252524B2, “GIP/GLP1 co-agonist compounds” (Eli Lilly and Company, priority 2018, dated 2025).

Test [1] addresses T1, human Gcg receptor (Homo sapiens, UniProt P47871).
T1 construct: expressed in transfected cells; crude membranes
In words: [125I]-Glucagon binding (SPA), human Gcg receptor. The conditions noted are these: read-out: hGLcgR Ki, nM (SEM, n). An outline of the steps: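 Crude membranes from cells expressing the receptor, prepared by hypotonic lysis in 50 mM Tris HCl pH 7.5 with protease inhibitors, homogenization and differential centrifugation, were used in a WGA-bead SPA. Binding buffer: 25 mM HEPES pH 7.4, 2.5 mM CaCl2, 1 mM MgCl2, bacitracin, Tween-20.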

Test [2] has as its target T2, human GIP receptor (Homo sapiens, UniProt P48546).
T2 construct: expressed in transfected cells; crude membranes
T2 sequence (P48546 22-466): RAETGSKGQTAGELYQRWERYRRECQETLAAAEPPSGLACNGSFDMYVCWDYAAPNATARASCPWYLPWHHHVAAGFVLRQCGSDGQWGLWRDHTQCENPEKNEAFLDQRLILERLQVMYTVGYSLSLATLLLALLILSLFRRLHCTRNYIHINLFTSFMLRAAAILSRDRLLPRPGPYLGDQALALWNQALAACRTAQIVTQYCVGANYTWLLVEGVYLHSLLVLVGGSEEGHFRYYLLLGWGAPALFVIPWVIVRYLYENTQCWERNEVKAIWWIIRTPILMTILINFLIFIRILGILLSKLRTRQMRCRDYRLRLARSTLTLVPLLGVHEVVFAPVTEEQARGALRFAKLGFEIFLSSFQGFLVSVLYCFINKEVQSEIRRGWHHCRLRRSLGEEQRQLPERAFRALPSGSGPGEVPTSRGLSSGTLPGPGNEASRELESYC
In words: [125I]-GIP binding (SPA), human GIP receptor. The conditions noted are these: read-out: hGIPR Ki, nM (SEM, n).

For test [3], the target named is human GLP-1R (Homo sapiens, UniProt P43220). In words: [125I]-GLP-1 binding (SPA), human GLP-1 receptor. The conditions noted are these: read-out: hGLP1R Ki, (nM) (SEM, n). Set-up: expressed in transfected cells; crude membranes. An outline of the steps: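 Assay buffer: HEPES 25 mM, pH 7.4, CaCl2 2.5 mM, MgCl2 1 mM, with EDTA-free protease inhibitors. Receptor came from crude cell membranes prepared by homogenization and centrifugation at 4° C. IC50s came from four-parameter fits (maximum, minimum, IC50, Hill slope) and were expressed as Ki geometric means with SEM.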
Chain of human GLP-1R (P43220 24-463): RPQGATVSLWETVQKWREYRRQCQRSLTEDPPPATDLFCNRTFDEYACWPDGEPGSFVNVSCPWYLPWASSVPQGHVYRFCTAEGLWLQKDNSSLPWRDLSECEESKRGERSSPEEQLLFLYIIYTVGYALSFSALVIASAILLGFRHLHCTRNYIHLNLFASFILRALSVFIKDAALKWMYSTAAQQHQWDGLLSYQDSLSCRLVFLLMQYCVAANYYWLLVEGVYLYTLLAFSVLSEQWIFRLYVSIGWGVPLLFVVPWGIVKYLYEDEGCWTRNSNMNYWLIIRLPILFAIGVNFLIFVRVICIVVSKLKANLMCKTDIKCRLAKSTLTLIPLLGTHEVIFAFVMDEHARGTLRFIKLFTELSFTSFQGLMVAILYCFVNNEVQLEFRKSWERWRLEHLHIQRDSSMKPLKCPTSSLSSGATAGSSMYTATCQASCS

Test [4] has as its target T3, gastric inhibitory peptide receptor (GIPR) (Homo sapiens, UniProt P48546).
T3 sequence (P48546 22-466): T2 sequence (P48546 22-466)
In words: cAMP pharmacological functional assay in presence of casein, hGIPR. Type of test: cell-based. The settings on record: HEK293 cells expressing hGIPR, 0.1% Casein, geometric mean; read-out: hGIPR cAMP Rel EC50 nM (SEM, n).

Test [5] deals with human GLP-1 receptor (GLP-1R) (Homo sapiens, UniProt P43220). Nature of the test: cAMP pharmacological functional assay in presence of casein, hGLP-1R. The format is cell-based. The settings on record: HEK293 cells expressing hGLP-1R, 0.1% Casein, geometric mean; read-out: hGLP1R cAMP Rel EC50 nM (SEM, n).
Chain of human GLP-1 receptor (GLP-1R) (P43220 24-463): as above

T1 sequence (P47871 26-477): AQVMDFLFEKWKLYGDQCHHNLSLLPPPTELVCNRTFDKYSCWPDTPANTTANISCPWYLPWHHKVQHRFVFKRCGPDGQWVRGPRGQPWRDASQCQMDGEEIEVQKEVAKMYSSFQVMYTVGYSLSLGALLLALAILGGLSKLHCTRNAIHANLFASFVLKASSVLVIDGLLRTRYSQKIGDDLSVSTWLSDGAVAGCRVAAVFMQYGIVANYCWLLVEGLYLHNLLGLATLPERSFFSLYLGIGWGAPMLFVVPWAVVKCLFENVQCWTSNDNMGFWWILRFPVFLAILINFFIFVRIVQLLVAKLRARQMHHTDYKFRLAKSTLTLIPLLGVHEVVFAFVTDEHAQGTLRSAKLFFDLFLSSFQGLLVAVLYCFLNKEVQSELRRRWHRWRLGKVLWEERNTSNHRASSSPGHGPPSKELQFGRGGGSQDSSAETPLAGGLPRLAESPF

What is called Ki is the dissociation constant of the complex between target and ligand, obtained from inhibition or displacement. For orientation: EC50 means the concentration at which the effect is half-maximal. For `CC[C@H](C)[C@H](NC(=O)[C@H](Cc1ccccc1)NC(=O)[C@H](C)NC(=O)C(C)(C)NC(=O)[C@H](CCC(N)=O)NC(=O)[C@H](C)NC(=O)[C@H](CCCCNC(=O)COCCOCCNC(=O)COCCOCCNC(=O)CC[C@H](NC(=O)CCCCCCCCCCCCCCCCCCC(=O)O)C(=O)O)NC(=O)[C@H](CCC(=O)O)NC(=O)[C@H](CC(=O)O)NC(=O)[C@H](CC(C)C)NC(=O)[C@](C)(CC(C)C)NC(=O)[C@@H](NC(=O)[C@H](CO)NC(=O)[C@H](Cc1ccc(O)cc1)NC(=O)[C@H](CC(=O)O)NC(=O)[C@H](CO)NC(=O)[C@@H](NC(=O)[C@H](Cc1ccccc1)NC(=O)[C@@H](NC(=O)CNC(=O)[C@H](CCC(=O)O)NC(=O)C(C)(C)NC(=O)[C@@H](N)Cc1ccc(O)cc1)[C@@H](C)O)[C@@H](C)O)[C@@H](C)CC)C(=O)N[C@@H](CCC(=O)O)C(=O)N[C@@H](Cc1ccc(O)cc1)C(=O)N[C@@H](CC(C)C)C(=O)N[C@@H](CC(C)C)C(=O)N[C@@H](CCC(=O)O)C(=O)NCC(=O)NCC(=O)N1CCC[C@H]1C(=O)N[C@@H](CO)C(=O)N[C@@H](CO)C(=O)NCC(=O)N[C@@H](C)C(=O)N1CCC[C@H]1C(=O)N1CCC[C@H]1C(=O)N1CCC[C@H]1C(=O)N[C@@H](CO)C(N)=O` [Example 66] (H-Y[Aib]EGTFTSDYSI[αMeL]LDEK([AEEA-AEEA-γGlu-C20 diacid])AQ[Aib]AFIEYLLEGGPSSGAPPPS-NH2), the values for the inhibitory constant (Ki) in test [1], in test [2] and in test [3] were 93.7 nM, 0.106 nM and 7.53 nM, respectively. For the same molecule, the concentration for a half-maximal effect (EC50) in test [4] was 0.0743 nM; in test [5], 0.285 nM.

In the case of `CC[C@H](C)[C@H](NC(=O)[C@H](CC(C)C)NC(=O)[C@H](Cc1ccc(O)cc1)NC(=O)[C@H](CCC(=O)O)NC(=O)[C@@H](NC(=O)[C@](C)(Cc1ccccc1)NC(=O)[C@H](C)NC(=O)C(C)(C)NC(=O)[C@H](CCC(N)=O)NC(=O)[C@H](C)NC(=O)[C@H](CCCCNC(=O)COCCOCCNC(=O)COCCOCCNC(=O)CC[C@H](NC(=O)CCCCCCCCCCCCCCCCCCC(=O)O)C(=O)O)NC(=O)[C@H](CCCCN)NC(=O)[C@H](CC(=O)O)NC(=O)[C@H](CC(C)C)NC(=O)[C@H](CC(C)C)NC(=O)[C@@H](NC(=O)[C@H](CO)NC(=O)[C@H](Cc1ccc(O)cc1)NC(=O)[C@H](CC(=O)O)NC(=O)[C@H](CO)NC(=O)[C@@H](NC(=O)[C@H](Cc1ccccc1)NC(=O)[C@@H](NC(=O)CNC(=O)[C@H](CCC(=O)O)NC(=O)C(C)(C)NC(=O)[C@@H](N)Cc1ccc(O)cc1)[C@@H](C)O)[C@@H](C)O)[C@@H](C)CC)[C@@H](C)CC)C(=O)N[C@@H](CCC(=O)O)C(=O)NCC(=O)NCC(=O)N1CCC[C@H]1C(=O)N[C@@H](CO)C(=O)N[C@@H](CO)C(=O)NCC(=O)N[C@@H](C)C(=O)N1CCC[C@H]1C(=O)N1CCC[C@H]1C(=O)N1CCC[C@H]1C(=O)N[C@@H](CO)C(N)=O` [Example 67], the Ki amounted to 270 nM in test [1], 0.061 nM in test [2] and 10.2 nM in test [3]. Besides, the concentration giving a half-maximal response (EC50) in test [4] turned out to be 0.0913 nM; in test [5], 0.447 nM.
